Assays:
Type in all cases: in vivo
rice (Oryza sativa) = test: Test B flooded paddy: rice; conditions: Flood, applied to paddy water at 2-leaf stage, visually evaluated after 13 to 15 days
Summary of the method: (§1)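 Plants were grown to the 2-leaf stage and pots flooded to 3 cm above soil. Compounds were applied directly into the paddy water, with depth kept for the test. After 13–15 days in greenhouse, response was rated visually against controls on a 0 (no effect) to 100 (complete control) scale.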

[1] = tested on: sedge, umbrella (small-flower umbrella sedge Cyperus difformis); test: Test B flooded paddy: sedge, umbrella; conditions: Flood, applied to paddy water at 2-leaf stage, visually evaluated after 13 to 15 days
Summary of the method: as §1

[2] = tested on: velvetleaf (Abutilon theophrasti); test: Test A pre-/postemergence: velvetleaf
Summary of the method: (§2)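 Each species received preemergence soil-directed spraying and, at the same time, postemergence treatment of seedlings 2–10 cm tall. Formulation: non-phytotoxic solvent mixture including surfactant. Response assessed visually about ten days on, relative to untreated controls, 0–100 scale.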

[3] = tested on: pigweed (Amaranthus retroflexus); test: Test A pre-/postemergence: pigweed
Summary of the method: as §2

[4] = tested on: morningglory (Ipomoea spp.); test: Test A pre-/postemergence: morningglory
Summary of the method: as §2

[5] = tested on: wheat (Triticum aestivum); test: Test A pre-/postemergence: wheat
Summary of the method: as §2

[6] = tested on: crabgrass, large (large crabgrass, Digitaria sanguinalis); test: Test A pre-/postemergence: crabgrass, large
Summary of the method: as §2

[7] = tested on: ducksalad (Heteranthera limosa); test: Test B flooded paddy: ducksalad; conditions: Flood, applied to paddy water at 2-leaf stage, visually evaluated after 13 to 15 days
Summary of the method: as §1

[8] = tested on: barnyardgrass (Echinochloa crus-galli); test: Test B flooded paddy: barnyardgrass; conditions: Flood, applied to paddy water at 2-leaf stage, visually evaluated after 13 to 15 days
Summary of the method: as §1

[9] = tested on: barnyardgrass (Echinochloa crus-galli); test: Test A pre-/postemergence: barnyardgrass
Summary of the method: as §2

[10] = tested on: foxtail, giant (giant foxtail, Setaria faberii); test: Test A pre-/postemergence: foxtail, giant
Summary of the method: as §2

corn (Zea mays) = test: Test A pre-/postemergence: corn
Summary of the method: as §2

[11] = Postemergence, 125 g ai/ha, 0 to 100 scale, 0 is no effect, 100 is complete control
[12] = Postemergence, 500 g ai/ha, 0 to 100 scale, 0 is no effect, 100 is complete control
[13] = Preemergence, 125 g ai/ha, 0 to 100 scale where 0 is no effect and 100 is complete control
[14] = Preemergence, 500 g ai/ha, 0 to 100 scale (0 no effect, 100 complete control)
[15] = Postemergence, 500 g ai/ha, visual rating on 0 to 100 scale (0 no effect, 100 complete control), approximately ten days

Row | Structure (SMILES) | Plant response rating, Velvetleaf [2, 11] | Plant response rating, Velvetleaf [2, 13] | Plant response rating, Velvetleaf [2, 14] | Plant response rating, Pigweed [3, 11] | Plant response rating, Pigweed [3, 13] | Plant response rating, Pigweed [3, 14] | Plant response rating, Morningglory [4, 11] | Plant response rating, Morningglory [4, 13] | Plant response rating, Morningglory [4, 14] | Plant response rating, Wheat [5, 11] | Plant response rating, Wheat [5, 13] | Plant response rating, Wheat [5, 14] | Plant response rating, Crabgrass, Large [6, 13] | Plant response rating, Crabgrass, Large [6, 14] | Plant response rating, Barnyardgrass [9, 13] | Plant response rating, Barnyardgrass [9, 14] | Plant response rating, Foxtail, Giant [10, 13] | Plant response rating, Foxtail, Giant [10, 14] | Plant response rating, Corn (corn (Zea mays); [13]) | Plant response rating, Corn (corn (Zea mays); [14]) | also measured
1 | CC(C)COc1nn(-c2ccc(C(F)(F)F)cc2)nc1Cc1ccnc(C(F)(F)F)c1 [Compound 193] | 30 | 0 | 0 | 70 | 0 | 20 | 10 | 0 | 0 | 0 | 0 | 0 | 0 | 40 | 0 | 0 | 10 | 70 | 0 | 0 | Plant response rating, Rice (0 to 100 scale, 0 is no effect, 100 is complete control) (rice (Oryza sativa); 125 g ai/ha): 0; Plant response rating, Sedge, Umbrella (0 to 100 scale, 0 is no effect, 100 is complete control) ([1]; 125 g ai/ha): 0; Velvetleaf plant response rating [2, 12]: 70; Pigweed plant response rating [3, 12]: 100; Morningglory plant response rating [4, 12]: 40; Wheat plant response rating [5, 12]: 10; Plant response rating, Crabgrass, Large [6, 11]: 10; Crabgrass, Large plant response rating [6, 12]: 30; Plant response rating, Ducksalad (0 to 100 scale, 0 is no effect, 100 is complete control) ([7]; 125 g ai/ha): 0; Plant response rating, Barnyardgrass (0 to 100 scale, 0 is no effect, 100 is complete control) ([8]; 125 g ai/ha): 0; Plant response rating, Barnyardgrass [9, 11]: 10; Barnyardgrass plant response rating [9, 12]: 20; Plant response rating, Foxtail, Giant [10, 11]: 10; Foxtail, Giant plant response rating [10, 12]: 20; Plant response rating, Corn (corn (Zea mays); [11]): 10; Corn plant response rating (corn (Zea mays); [12]): 30
2 | CCOc1nn(-c2ccc(F)cc2)nc1C(=O)c1ccnc(C(F)(F)F)c1 [Compound 177] | 20 | 0 | 20 | 60 | 10 | 50 | 90 | 20 | 40 | 20 | 0 | 0 | 90 | 100 | 0 | 70 | 90 | 100 | 0 | 0 | Plant response rating, Rice (0 to 100 scale, 0 is no effect, 100 is complete control) (rice (Oryza sativa); 125 g ai/ha): 0; Plant response rating, Sedge, Umbrella (0 to 100 scale, 0 is no effect, 100 is complete control) ([1]; 125 g ai/ha): 40; Velvetleaf plant response rating [2, 12]: 50; Pigweed plant response rating [3, 12]: 100; Morningglory plant response rating [4, 12]: 100; Wheat plant response rating [5, 12]: 30; Plant response rating, Crabgrass, Large [6, 11]: 10; Crabgrass, Large plant response rating [6, 12]: 60; Plant response rating, Ducksalad (0 to 100 scale, 0 is no effect, 100 is complete control) ([7]; 125 g ai/ha): 0; Plant response rating, Barnyardgrass (0 to 100 scale, 0 is no effect, 100 is complete control) ([8]; 125 g ai/ha): 0; Plant response rating, Barnyardgrass [9, 11]: 0; Barnyardgrass plant response rating [9, 12]: 20; Plant response rating, Foxtail, Giant [10, 11]: 20; Foxtail, Giant plant response rating [10, 12]: 70; Plant response rating, Corn (corn (Zea mays); [11]): 20; Corn plant response rating (corn (Zea mays); [12]): 30
3 | Cc1cc(Oc2nn(-c3ccc(F)cc3)nc2C)ccn1 [Compound 135] | 10 | 0 | 0 | 20 | 0 | 0 | 0 | 0 | 0 | 0 | 0 | 0 | 0 | 0 | 0 | 0 | 0 | 0 | 0 | 0 | Plant response rating, Rice (0 to 100 scale, 0 is no effect, 100 is complete control) (rice (Oryza sativa); 250 g ai/ha): 0; Plant response rating, Sedge, Umbrella (0 to 100 scale, 0 is no effect, 100 is complete control) ([1]; 250 g ai/ha): 0; Velvetleaf plant response rating [2, 15]: 30; Pigweed plant response rating [3, 15]: 50; Morningglory plant response rating [4, 15]: 10; Wheat plant response rating [5, 15]: 0; Crabgrass, Large plant response rating [6, 11]: 10; Crabgrass, Large plant response rating [6, 15]: 20; Plant response rating, Ducksalad (0 to 100 scale, 0 is no effect, 100 is complete control) ([7]; 250 g ai/ha): 0; Plant response rating, Barnyardgrass (0 to 100 scale, 0 is no effect, 100 is complete control) ([8]; 250 g ai/ha): 0; Barnyardgrass plant response rating [9, 11]: 0; Barnyardgrass plant response rating [9, 15]: 10; Foxtail, Giant plant response rating [10, 11]: 0; Foxtail, Giant plant response rating [10, 15]: 10; Corn plant response rating (corn (Zea mays); [11]): 10; Corn plant response rating (corn (Zea mays); [15]): 20
4 | CON=C(c1cccc(C(F)(F)F)c1)c1nn(-c2ccnc(C(F)(F)F)c2)nc1C [Compound 140] | 20 | 20 | 30 | 100 | 30 | 80 | 50 | 0 | 0 | 10 | 0 | 0 | 20 | 50 | 0 | 30 | 20 | 70 | 0 | 0 | Plant response rating, Rice (0 to 100 scale, 0 is no effect, 100 is complete control) (rice (Oryza sativa); 250 g ai/ha): 0; Plant response rating, Sedge, Umbrella (0 to 100 scale, 0 is no effect, 100 is complete control) ([1]; 250 g ai/ha): 0; Velvetleaf plant response rating [2, 15]: 70; Pigweed plant response rating [3, 15]: 100; Morningglory plant response rating [4, 15]: 90; Wheat plant response rating [5, 15]: 20; Crabgrass, Large plant response rating [6, 11]: 20; Crabgrass, Large plant response rating [6, 15]: 50; Plant response rating, Ducksalad (0 to 100 scale, 0 is no effect, 100 is complete control) ([7]; 250 g ai/ha): 0; Plant response rating, Barnyardgrass (0 to 100 scale, 0 is no effect, 100 is complete control) ([8]; 250 g ai/ha): 30; Barnyardgrass plant response rating [9, 11]: 10; Barnyardgrass plant response rating [9, 15]: 30; Foxtail, Giant plant response rating [10, 11]: 20; Foxtail, Giant plant response rating [10, 15]: 50; Corn plant response rating (corn (Zea mays); [11]): 20; Corn plant response rating (corn (Zea mays); [15]): 30
5 | CCc1nn(-c2ccc(F)c(C(F)(F)F)c2)nc1Oc1ccnc(C(F)(F)F)c1 [Compound 180] | 70 | 50 | 60 | 100 | 100 | 100 | 100 | 40 | 70 | 30 | 20 | 40 | 100 | 100 | 60 | 80 | 100 | 100 | 10 | 20 | Plant response rating, Rice (0 to 100 scale, 0 is no effect, 100 is complete control) (rice (Oryza sativa); 125 g ai/ha): 30; Plant response rating, Sedge, Umbrella (0 to 100 scale, 0 is no effect, 100 is complete control) ([1]; 125 g ai/ha): 70; Velvetleaf plant response rating [2, 12]: 100; Pigweed plant response rating [3, 12]: 100; Morningglory plant response rating [4, 12]: 100; Wheat plant response rating [5, 12]: 40; Plant response rating, Crabgrass, Large [6, 11]: 90; Crabgrass, Large plant response rating [6, 12]: 90; Plant response rating, Ducksalad (0 to 100 scale, 0 is no effect, 100 is complete control) ([7]; 125 g ai/ha): 60; Plant response rating, Barnyardgrass (0 to 100 scale, 0 is no effect, 100 is complete control) ([8]; 125 g ai/ha): 0; Plant response rating, Barnyardgrass [9, 11]: 50; Barnyardgrass plant response rating [9, 12]: 80; Plant response rating, Foxtail, Giant [10, 11]: 90; Foxtail, Giant plant response rating [10, 12]: 90; Plant response rating, Corn (corn (Zea mays); [11]): 20; Corn plant response rating (corn (Zea mays); [12]): 30
